{"source": "patent US20140107523A1", "about": "“MODEL FOR TRAUMATIC BRAIN INJURY” (University of Rochester, priority 2012, published 2014)", "origin": "cited, not measured here", "tested_on": "NMDA receptor", "settings": "rats treated with the NMDA receptor blocker; spatial learning", "data": [{"smiles": "N[C@@H](CCCP(=O)(O)O)C(=O)O", "note": "[APV]", "values": [{"measurement": "performance in the Morris water maze", "value": "perform poorly"}]}]}
